# Results published in patent publication US20060079490A1, “Method of treatment of type I diabetes” (priority 2001, published 2006).
# Read-outs that look alike come from different tables or passages of the source.
# Legend:
# [1] = tested on: Non-Obese Diabetic (NOD/LtJ) mice; experiment: Diabetes incidence (serum glucose >300 mg/dL) in vitamin D-deficient NOD mice given 1,25(OH)2D3 in the diet; assay type: in vivo, mouse; conditions: for incidence of diabetes: 50 ng/mouse/day in diet from weaning, at termination of experiment
# Text: Non-Obese Diabetic (NOD/LtJ) mice were purchased from The Jackson laboratory (Bar Harbor, Me. 04609). Mice were maintained on highly purified vitamin D-deficient diet containing 0.47% calcium and 0.3% phosphorus supplemented with vitamins A, E, and K. This diet was solidified by the addition of molten agar to a powdered diet. To obtain vitamin D-deficiency in the offspring, pregnant mothers were maintained on the vitamin D-deficient diet. Then, offspring, once weaned, were further maintained on the vitamin D-deficient diet. […] Treatment with 1,25(OH)2D3 was started at weaning. Animals were bled from the extraorbital sinus with a glass pipette after a four hour fast at 2 pm once a week. Serum glucose was determined using the Trinder glucose oxidase enzyme assay kit purchased from Sigma (St. Louis, Mo.). 5 μL of NOD serum was used as an unknown and analyzed spectrophotometrically at 505 nm against a known glucose standard (Sigma, St. Louis, Mo.). An animal was considered diabetic if its serum glucose was greater than 300 mg/dL.
# [2] = Serum calcium and hypercalcemia in NOD mice given dietary 1,25(OH)2D3 (study A); assay type: in vivo, mouse; conditions: for serum calcium: 50 ng each day
# Text: Non-Obese Diabetic (NOD/LtJ) mice were purchased from The Jackson laboratory (Bar Harbor, Me. 04609). Mice were maintained on highly purified vitamin D-deficient diet containing 0.47% calcium and 0.3% phosphorus supplemented with vitamins A, E, and K. This diet was solidified by the addition of molten agar to a powdered diet. To obtain vitamin D-deficiency in the offspring, pregnant mothers were maintained on the vitamin D-deficient diet. Then, offspring, once weaned, were further maintained on the vitamin D-deficient diet. […] Animals were bled from the extraorbital sinus with a glass pipette after a four hour fast at 2 pm once a week.
# Blood was immediately centrifuged to obtain serum. Serum was diluted in 0.1% lanthanum chloride, and serum calcium was measured by atomic absorption using a Perkin-Elmer model 3110 atomic absorption spectrometer.
# female NOD/LtJ mice [3] = experiment: Injection vs. Dietary Study: diabetic incidence at day 200; assay type: in vivo, mouse
# Protocol: NOD/LtJ mice were fed control diets (purified Diet 11 as described in Suda, et al., J. Nutr. 100:1049-1052 1970, 0.47% calcium +vitamins A, D, E and K) or experimental diets (control +10, 25 or 50 ng of 1,25D3/mouse/day).
# Control (vehicle) animals were injected with 50 μL sterile peanut oil while the experimental animals were injected with 5 μg/kg 1,25D3/mouse/2 days in sterile peanut oil.
# (§1) Mice were weaned at 21 days and placed on the appropriate diets. Injections and experimental diets were administered every 48 hours. Control diets were fed 3 times/week. Every 10 days beginning at day 30 and ending on day 170, mice were weighed and bled for serum calcium determination. Beginning on day 70, mice were tested for glucosuria 3 times/week. If a mouse tested positive, it was fasted for 4 hours and bled to measure serum glucose levels. If the fasting serum glucose level was greater than 300 mg%, the mouse was considered diabetic. All mice remaining at 200 days were sacrificed.
# [4] = mouse, in vivo
# Protocol: as §1
# NOD/LtJ mice = experiment: Diabetes incidence by 200 days with 1,25(OH)2D3 diet started at weaning, 8 weeks or 100 days (study C); assay type: in vivo, mouse
# Protocol: Animals: Mice from an in-house breeding colony of NOD/LtJ mice (Jackson Laboratory) were used for this study. Female mice were randomly weaned into each dietary group. 24 mice were used per group.
# Diet Preparation: Experimental purified diets were prepared containing 0.47% calcium supplemented with 25 IU vitamin D3 (Diet 11). […] All purified powder diets were solidified by mixing with molten agar to ensure animals consumed the exact dose of 1,25(OH)2D3. Each mouse was administered 3.5 grams of powder diet per day.
# Diet Administration: Experimental purified diets were administered beginning at weaning (3 weeks of age) until 200 days of age. 1,25(OH)2D3-containing diet was administered beginning at weaning (group 2), beginning at 8 weeks of age (group 3), or beginning at 100 days of age (group 4).
# Serum glucose determination: Serum glucose was measured using an enzymatic colorimetric assay (Glucose liquicolor, Stanbio, Boerne, Tex.).
# Disease analysis: Urine samples were obtained twice weekly from animals older than 70 days of age and tested for urinary glucose using Diastix (Bayer, Elkhart, Ind.). Serum glucose was measured from animals with urine glucose readings >250 mg/dL. Animals with multiple serum glucose values >300 mg/dL at least 24 hours apart were considered diabetic and sacrificed via CO2 asphyxiation. All remaining animals were sacrificed at 200 days of age.
# female NOD/LtJ mice [5] = experiment: Injection vs. Dietary Study: diabetic incidence at day 200; assay type: in vivo, mouse; conditions: injection of 50 μg/day (so in the source)
# NOD mice = conditions: cited from earlier work; for total diabetes incidence at 200 days: control 86%
# [6] = administered from 100 to 200 days of age
smiles,measurement,setting,value
"C=C1/C(=C\C=C2/CCC[C@]3(C)[C@@H]([C@H](C)CCCC(C)(C)O)CC[C@@H]23)C[C@@H](O)C[C@@H]1O [1,25(OH)2D3, 1α,25-dihydroxyvitamin D3]",serum glucose values,"[1]; 200 ng group, at any time",≤ 300 mg/dL
same,incidence of diabetes,[1]; female NOD mice,7.69%
same,incidence of diabetes,[1]; male NOD mice,7.14%
same,serum calcium levels (evidence of hypercalcemia),[2]; 200 ng group,≥ 12 mg/dL
same,serum calcium,"[2]; females, at 40 days",10.50 ± 1.53 mg/dL
same,serum calcium,"[2]; females, at 150 days of age",13.10 ± 1.01 mg/dL
same,number of NOD females died of hypercalcemia,"[2]; females, 50 ng, by 150 days of age",7
same,serum calcium,"[2]; males, at 40 days",9.22 ± 0.93 mg/dL
same,serum calcium,"[2]; males, at 150 days of age",12.78 ± 1.11 mg/dL
same,db %=,"female NOD/LtJ mice [3]; 10 ng diet, day 200",11%
same,db n=,"female NOD/LtJ mice [3]; 10 ng diet, day 200, n=9",1
same,db %=,"female NOD/LtJ mice [3]; 25 ng diet, day 200",22%
same,db n=,"female NOD/LtJ mice [3]; 25 ng diet, day 200, n=9",2
same,db %=,"female NOD/LtJ mice [3]; 50 ng diet, day 200",25%
same,db n=,"female NOD/LtJ mice [3]; 50 ng diet, day 200, n=8",2
same,diabetes incidence,"female NOD/LtJ mice [3]; in the diet (oral treatment), day 200",10-25%
same,db %=,"female NOD/LtJ mice [3]; injected 5 μg/kg/2 days in peanut oil, day 200",71%
same,db n=,"female NOD/LtJ mice [3]; injected 5 μg/kg/2 days in peanut oil, day 200, n=7",5
same,incidence of diabetes,"female NOD/LtJ mice [3]; injected, day 200",over 70%
same,hypercalcemia,[4],clearly caused hypercalcemia
same,became diabetic by 200 days of age,"NOD/LtJ mice; 50 ng in diet after 100 days of age (group 4), 23 animals",8.7%
same,animals that became diabetic by 200 days of age,NOD/LtJ mice; 50 ng in diet beginning at 8 weeks of age (group 3),0 of 24
same,became diabetic by 200 days of age,"NOD/LtJ mice; 50 ng in diet from weaning (group 2), 24 mice",4.2%
same,effect of injection on incidence of diabetes,female NOD/LtJ mice [5],increased rather than decreased the incidence of diabetes
same,diabetic incidence,NOD mice; [6],same diabetic incidence as the control group
same,onset of diabetes,NOD mice; [6],appeared to be slightly delayed
same,incidence of diabetes,"NOD mice; female NOD mice, injection of 5 μg/kg, control 56%",8%
same,bone calcium,"NOD mice; mouse, in vivo",reduced
same,total diabetes incidence at 200 days,NOD mice; treated only until 100 days of age,about 35%
same,total diabetes incidence at 200 days,NOD mice; treated until 200 days of age,13%
